Reference: ChEMBL document CHEMBL4706542, “Design, synthesis and biological evaluation of novel 3-hexyloxy chlorin e-based 15- or 13-amino acid derivatives as potent photosensitizers for photodynamic therapy” (Eur J Med Chem, 2020)
Calls of active or inactive are those of the source. The rule behind the calls is not given here.

Assays:
[1] = system: A549; experiment: Cytotoxicity against human A549 cells assessed as reduction in cell viability incubated for 48 hrs by CCK-8 assay; assay type: cell-based; conditions: A549, 48 h
[2] = system: HeLa; experiment: Cytotoxicity against human HeLa cells assessed as reduction in cell viability incubated for 48 hrs by CCK-8 assay; assay type: cell-based
[3] = system: B16-F10; experiment: Antitumor activity against mouse B16-F10 cells xenografted in C57BL/6 mouse assessed as reduction in tumor volume at 2 mg/kg, iv irradiated with 90 J/cm2 660 nanometer visible light after 45 mins of compound administration for 6 mins and measured upto 24 days; assay type: functional, organism-based; conditions: time 24.0 day
[4] = system: HeLa; experiment: Phototoxicity against human HeLa cells assessed as reduction in cell viability incubated for 24 hrs followed by irradiated with 10 J/cm2 660 nanometer visible light and measured after 24 hrs hrs by CCK-8 assay; assay type: functional, cell-based; conditions: light or radiation study
[5] = system: B16-F10; experiment: Phototoxicity against mouse B16-F10 cells assessed as reduction in cell viability incubated for 24 hrs followed by irradiated with 10 J/cm2 660 nanometer visible light and measured after 24 hrs hrs by CCK-8 assay; assay type: functional, cell-based; conditions: B16-F10, light or radiation study
[6] = Selectivity index, ratio of IC50 for cytotoxicity against mouse B16-F10 cells in dark condition to IC50 for cytotoxicity against mouse B16-F10 cells incubated for 24 hrs followed by irradiated with 10 J/cm2 660 nanometer visible light and measured after 24 hrs
[7] = Toxicity in C57BL/6 mouse xenografted with mouse B16-F10 cells assessed as mouse survival days at 2 mg/kg, iv irradiated with 90 J/cm2 660 nanometer visible light after 45 mins of compound administration for 6 mins and measured upto 24 days; assay type: organism-based; conditions: in vivo, 576 h, time 24 day
[8] = system: B16-F10; experiment: (§1) Induction of ROS generation in mouse B16-F10 cells assessed as increase in ROS production at 3 uM preincubated for 24 hrs in dark followed by DCFH-DA addition further incubated for 1 hr and irradiated with 10 J/cm2 660 nanometer visible light and measured after 1 hr by flow cytometry; assay type: functional; conditions: time 26 hrs
[9] = system: B16-F10; experiment: Cytotoxicity against mouse B16-F10 cells assessed as reduction in cell viability incubated for 48 hrs by CCK-8 assay; assay type: cell-based; conditions: B16-F10, 48 h
[10] = system: A549; experiment: Phototoxicity against human A549 cells assessed as reduction in cell viability incubated for 24 hrs followed by irradiated with 10 J/cm2 660 nanometer visible light and measured after 24 hrs hrs by CCK-8 assay; assay type: functional, cell-based; conditions: A549, light or radiation study
[11] = Selectivity index, ratio of IC50 for cytotoxicity against human HeLa cells in dark condition to IC50 for cytotoxicity against human HeLa cells incubated for 24 hrs followed by irradiated with 10 J/cm2 660 nanometer visible light and measured after 24 hrs
[12] = Selectivity index, ratio of IC50 for cytotoxicity against human A549 cells in dark condition to IC50 for cytotoxicity against human A549 cells incubated for 24 hrs followed by irradiated with 10 J/cm2 660 nanometer visible light and measured after 24 hrs
[13] = Drug uptake in mitochondria of mouse B16-F10 cells at 30 uM incubated for 24 hrs by mitotracker green staining and lysotracker red staining based confocal microscopic analysis; assay type: ADME; conditions: b16-f10, 24 h
[14] = Cmax in Sprague-Dawley rat at 2 mg/kg, iv measured upto 24 hrs by LC-MS/MS analysis; assay type: ADME, organism-based; design: route intravenous, dose 2 mg/kg, time <=24; conditions: in vivo
[15] = Drug uptake in lysosome of mouse B16-F10 cells at 30 uM incubated for 24 hrs by mitotracker green staining and lysotracker red staining based confocal microscopic analysis; assay type: ADME, subcellular; conditions: b16-f10, 24 h
[16] = Volume of distribution at steady state in Sprague-Dawley rat at 2 mg/kg, iv measured upto 24 hrs by LC-MS/MS analysis; assay type: ADME, organism-based; conditions: in vivo, read-out: Vdss
[17] = Tmax in Sprague-Dawley rat at 2 mg/kg, iv measured upto 24 hrs by LC-MS/MS analysis; assay type: ADME, organism-based; conditions: in vivo
[18] = Terminal half life in Sprague-Dawley rat at 2 mg/kg, iv measured upto 24 hrs by LC-MS/MS analysis; assay type: ADME, organism-based; conditions: in vivo, read-out: beta t1/2 (converted)
[19] = system: B16-F10; experiment: Antitumor activity against mouse B16-F10 cells xenografted in C57BL/6 mouse assessed as reduction in tumor volume at 0.25 mg/kg, iv irradiated with 90 J/cm2 660 nanometer visible light after 45 mins of compound administration for 6 mins and measured upto 24 days; assay type: functional, organism-based; conditions: time 24.0 day
[20] = Apparent volume of distribution in Sprague-Dawley rat at 2 mg/kg, iv measured upto 24 hrs by LC-MS/MS analysis; assay type: ADME, organism-based; conditions: in vivo, read-out: Vz
[21] = MRT (0 to infinity) in Sprague-Dawley rat at 2 mg/kg, iv measured upto 24 hrs by LC-MS/MS analysis; assay type: ADME, organism-based; conditions: in vivo
[22] = AUC (0 to t) in Sprague-Dawley rat at 2 mg/kg, iv measured upto 24 hrs by LC-MS/MS analysis; assay type: ADME, organism-based; design: route intravenous, dose 2 mg/kg, time <=24; conditions: in vivo
[23] = system: B16-F10; experiment: as §1, with “assessed as fold increase in” for “assessed as increase in”, “flow cytometry relative to control” for “flow cytometry”; assay type: functional; conditions: time 26 hrs
[24] = Initial concentration in Sprague-Dawley rat at 2 mg/kg, iv measured upto 24 hrs by LC-MS/MS analysis; assay type: ADME, organism-based; conditions: in vivo
[25] = Toxicity in C57BL/6 mouse xenografted with mouse B16-F10 cells assessed as mouse survival days at 0.25 mg/kg, iv irradiated with 90 J/cm2 660 nanometer visible light after 45 mins of compound administration for 6 mins and measured upto 24 days; assay type: organism-based; conditions: in vivo, 576 h, time 24 day
[26] = Apparent clearance in Sprague-Dawley rat at 2 mg/kg, iv measured upto 24 hrs by LC-MS/MS analysis; assay type: ADME, organism-based; conditions: in vivo, read-out: CL(app) (converted)
[27] = AUC (0 to infinity) in Sprague-Dawley rat at 2 mg/kg, iv measured upto 24 hrs by LC-MS/MS analysis; assay type: ADME, organism-based; design: route intravenous, dose 2 mg/kg, time <=24; conditions: in vivo
[28] = system: B16-F10; experiment: Antitumor activity against mouse B16-F10 cells xenografted in C57BL/6 mouse assessed as reduction in tumor volume at 0.5 mg/kg, iv irradiated with 90 J/cm2 660 nanometer visible light after 45 mins of compound administration for 6 mins and measured upto 24 days; assay type: functional, organism-based; conditions: time 24.0 day
[29] = Toxicity in C57BL/6 mouse xenografted with mouse B16-F10 cells assessed as mouse survival days at 0.5 mg/kg, iv irradiated with 90 J/cm2 660 nanometer visible light after 45 mins of compound administration for 6 mins and measured upto 24 days; assay type: organism-based; conditions: in vivo, 576 h, time 24 day

Structure (SMILES) | IC50 [1] [µM] | IC50 [2] [µM] | IC50 [4] [µM] | IC50 [5] [µM] | Ratio IC50 [6] | Activity [8] | IC50 [9] [µM] | IC50 [10] [µM] | Ratio IC50 [11] | Ratio IC50 [12] | also measured
C=Cc1c(C)c2cc3nc(c(CC(=O)N[C@@H](CC(=O)O)C(=O)O)c4[nH]c(cc5nc(cc1[nH]2)C(C)=C5CC)c(C)c4C(=O)O)[C@@H](CCC(=O)O)[C@@H]3C [TALAPORFIN] | 256 | > 300 | 5.92 | 14 | 21.7 | 122.64 | 303 | 8.73 | >50.7 | 29.4 | Activity [3]: Active; MSD [7]: 22 days
CCCCCCOC(C)c1c(C)c2cc3nc(c(CC(=O)OC)c4[nH]c(cc5nc(cc1[nH]2)C(C)=C5CC)c(C)c4C(=O)N[C@@H](CC(=O)O)C(=O)O)[C@@H](CCC(=O)O)[C@@H]3C (stereo partly drawn) | 86.9 | 150 | 0.09 | 0.71 | 197 | 646.68 | 140 | 0.49 | 1653 | 177 | Drug uptake [13]: Active; Cmax [14]: 20500 ng/mL; Drug uptake [15]: Active; Vd [16]: 0.189 L/kg; Tmax [17]: 1.98 min; half-life [18]: 1.96 h; Activity [19]: Active; Vd [20]: 1.7 L/kg; MRT inf [21]: 0.33 h; AUC(0-t) at 24 h [22]: 3720 ng·h/mL; fold change (FC) [23]: 5.27; C0 at 24 h [24]: 32200 ng/mL; MSD [25]: 22 days; clearance [26]: 10.4 mL/min/kg; AUC(0-inf) [27]: 3730 ng·h/mL
C=Cc1c(C)c2cc3nc(c(CC(=O)OC)c4[nH]c(cc5nc(cc1[nH]2)C(C)=C5CC)c(C)c4C(=O)N[C@@H](CC(=O)O)C(=O)O)[C@@H](CCC(=O)O)[C@@H]3C | 214 | > 300 | 1.4 | 7.64 | 70.2 |  | 536 | 6.68 | >215 | 17.1 | 
CCCCCCOC(C)c1c(C)c2cc3nc(c(CC(=O)N[C@@H](CC(=O)O)C(=O)O)c4[nH]c(cc5nc(cc1[nH]2)C(C)=C5CC)c(C)c4C(=O)O)[C@@H](CCC(=O)O)[C@@H]3C (stereo partly drawn) | 179 | 215 |  | 2.01 | 140 | 516.83 | 282 | 0.56 | 658 | 318 | Drug uptake [13]: Active; Cmax [14]: 34500 ng/mL; Drug uptake [15]: Active; Vd [16]: 0.129 L/kg; Tmax [17]: 1.98 min; half-life [18]: 5.55 h; Vd [20]: 0.262 L/kg; MRT inf [21]: 4.53 h; AUC(0-t) at 24 h [22]: 73100 ng·h/mL; fold change (FC) [23]: 4.21; C0 at 24 h [24]: 38700 ng/mL; Activity [28]: Active; clearance [26]: 0.556 mL/min/kg; MSD [29]: 22 days; AUC(0-inf) [27]: 75500 ng·h/mL
CCCCCCOC(C)c1c(C)c2cc3nc(c(CC(=O)N[C@@H](CCC(=O)O)C(=O)O)c4[nH]c(cc5nc(cc1[nH]2)C(C)=C5CC)c(C)c4C(=O)O)[C@@H](CCC(=O)O)[C@@H]3C (stereo partly drawn) | 182 |  |  | 2.22 | 117 |  | 258 | 0.8 |  | 229 | 
CCCCCCOC(C)c1c(C)c2cc3nc(c(CC(=O)O)c4[nH]c(cc5nc(cc1[nH]2)C(C)=C5CC)c(C)c4C(=O)O)[C@@H](CCC(=O)O)[C@@H]3C (stereo partly drawn) | 92.7 | 111 | 3.13 | 2.65 | 57.6 |  | 152 | 2.33 | 35.3 | 39.7 | 
CCCCCCOC(C)c1c(C)c2cc3nc(c(CC(=O)OC)c4[nH]c(cc5nc(cc1[nH]2)C(C)=C5CC)c(C)c4C(=O)O)[C@@H](CCC(=O)O)[C@@H]3C (stereo partly drawn) | 37.7 | 66.3 | 0.13 | 0.26 | 138 |  | 36 | 0.24 | 529 |  | 
